Laboratory results taken from US20260207777A1, “IMPROVED PEPTIDE INHIBITORS OF P53 BINDING PROTEIN 53BP1” (KAMAU THERAPEUTICS, INC., priority 2022, published 2026).

Assays:
[1] = test system: CD34+ HSPCs; experiment: editing of CD34+ HSPCs with purified i53 variant proteins and HBB-SNP AAV donor; NGS of editing outcomes; assay type: cell-based, human; conditions: for increase in levels of HDR corrected alleles over control edited cells: FIG. 13; for increase in levels of HDR corrected alleles over DM: L67R/L67H value is the average of both
Procedure: (§1) Chemically-modified single guide RNAs (sgRNAs) used to edit CD34+ HSPCs at the HBB locus were purchased from Synthego. The sgRNA sequences were modified by adding 2′-O-methyl-3′-phosphorothioate at the three terminal nucleotides of the 5′ and 3′ ends. The target sequence for the HBB sgRNA is as follows: HBB: 5′[…]-3′ (SEQ ID NO: 74). Cas9 protein (SpyFi Cas9) was purchased from Aldevron. The RNPs were complexed at a Cas9:sgRNA molar ratio of 1:2.5 at 25° C. for 10-15 min prior to electroporation. Cells were collected, counted, and pelleted at 180 g×7 min. The cell pellets were resuspended in Maxcyte buffer with complexed RNPs and electroporated using a Maxcyte EXPERT ATx Nucleofector. After electroporation cells were plated at 3.5×10^5 cells/mL in media supplemented with cytokines and the desired AAV donor added at 5.0×10^2-2.5×10^4 vector genomes/cell. 24 h after nucleofection, cells were spun down, washed once with media, and seeded into AAV-free media at a density of 3.5×10^5 cells/mL.
(§2) CD34+ HPSCs were edited with protein variants 3 days post thaw and were harvested 2 days post nucleofection for NGS analysis or 3-5 days post nucleofection for GFP expression analysis. Editing reactions with proteins at a given concentration were repeated in duplicate or triplicate (either using the same CD34+ HSPC donor or across multiple donors).
24 h after nucleofection, cells were spun down, washed with media, and seeded into AAV and DNAPKi-free media at a density of 3.5×10^5 cells/mL.
The frequency of homology directed repair (HDR) and other editing outcomes at HBB were measured using Next Generation Sequencing (NGS). An NGS assay was developed to determine the frequency of at the HBB locus by quantifying the total number of alleles that have been either: (1) not edited (% WT), (2) changed by HDR to incorporate sequence differences present in the AAV repair template (% HR), or (3) mutated during the genome correction process resulting in a gene that produces mutant β-globin (% INDELs).
For this assay, genomic DNA was harvested from cells using a Quick-DNA 96 Plus Kit (Zymo Research). The DNA concentration was measured using a Qubit 1×dsDNA BR assay kit (ThermoFisher). Purified genomic DNA was then used to amplify the HBB locus via polymerase chain reaction (PCR). The PCR products were diluted using nuclease-free water to serve as the template DNA for targeted NGS library prep. A second PCR with primers carrying partial Illumina adapters was performed to amplify a 142 base pair sequence that includes the region of the HBB locus that is to be corrected during the genome correction process. The PCR products were diluted again to serve as templates in a third PCR reaction using Nextera XT index primers. This third PCR reaction was used to assign unique identifiers to each sample and to add the full length adapter sequences necessary for Illumina sequencing. The size of the PCR products was assessed on an Agilent BioAnalyzer. PCR products were then pooled, purified using a Qiagen PCR purification kit, and quantified using PicoGreen in order to ready the PCR products for sequencing.
Based on the PicoGreen concentration, the library of pooled PCR products was diluted to a final concentration of 4 nM. Sequencing was performed on a MiSeq system using an Illumina MiSeq sequencing reagent kit (V2, 300 cycles). A 10% PhiX control library was added to the sample library to improve sequence diversity and to allow for error rate measurements. The library was denatured and loaded at […] onto the sequencing reagent cartridge. The sequencing entails paired-end 150 base pair reads and dual indexing reads. The sequencing data was demultiplexed based on the sample indexes provided and FASTQ files for each sample are generated.
The FASTQ files were processed using the CRISPResso2 pipeline^3. The data was reported as % WT, % corrected by HR, and % INDELs. […]

[2] = test system: CD34+ HSPCs; experiment: editing at the off-target editing site OT-1 (NGS-based analysis); assay type: cell-based, human; conditions: protein 0.8 mg/mL
Excerpt: Editing outcomes at the off-target (OT) editing site OT-1 can be assessed using an assay very similar to the one described above for measuring the targeted integration of HBB-SNP. The off-target editing site was identified via three different methods (in silico prediction,^13 Circle-Seq,^14 and Guide-Seq^15) and was confirmed to be off-target editing site of significance via amplicon sequencing. The workflow for the OT-1 amplicon sequencing assay is very similar to the on-target sequencing assay but involves one less PCR step. A small 166 base pair sequence encompassing the OT-1 editing site is amplified directly from genomic DNA in the first PCR and then tagged with barcode and adapter sequences in a second PCR. The resulting PCR products are sized, quantified, and prepared for sequencing in the same manner as for the HBB on-target sequencing assay. The sequencing data is also processed using the Crispresso2 pipeline,^3 but in contrast to the on-target sequencing assay no homology direct repair outcomes are present at OT-1, only % WT and % INDELs are reported.

[3] = target: 53BP1 (Homo sapiens, UniProt Q12888); conditions: transiently expressed in cells; cited from earlier work
53BP1, sequence (Q12888 whole entry): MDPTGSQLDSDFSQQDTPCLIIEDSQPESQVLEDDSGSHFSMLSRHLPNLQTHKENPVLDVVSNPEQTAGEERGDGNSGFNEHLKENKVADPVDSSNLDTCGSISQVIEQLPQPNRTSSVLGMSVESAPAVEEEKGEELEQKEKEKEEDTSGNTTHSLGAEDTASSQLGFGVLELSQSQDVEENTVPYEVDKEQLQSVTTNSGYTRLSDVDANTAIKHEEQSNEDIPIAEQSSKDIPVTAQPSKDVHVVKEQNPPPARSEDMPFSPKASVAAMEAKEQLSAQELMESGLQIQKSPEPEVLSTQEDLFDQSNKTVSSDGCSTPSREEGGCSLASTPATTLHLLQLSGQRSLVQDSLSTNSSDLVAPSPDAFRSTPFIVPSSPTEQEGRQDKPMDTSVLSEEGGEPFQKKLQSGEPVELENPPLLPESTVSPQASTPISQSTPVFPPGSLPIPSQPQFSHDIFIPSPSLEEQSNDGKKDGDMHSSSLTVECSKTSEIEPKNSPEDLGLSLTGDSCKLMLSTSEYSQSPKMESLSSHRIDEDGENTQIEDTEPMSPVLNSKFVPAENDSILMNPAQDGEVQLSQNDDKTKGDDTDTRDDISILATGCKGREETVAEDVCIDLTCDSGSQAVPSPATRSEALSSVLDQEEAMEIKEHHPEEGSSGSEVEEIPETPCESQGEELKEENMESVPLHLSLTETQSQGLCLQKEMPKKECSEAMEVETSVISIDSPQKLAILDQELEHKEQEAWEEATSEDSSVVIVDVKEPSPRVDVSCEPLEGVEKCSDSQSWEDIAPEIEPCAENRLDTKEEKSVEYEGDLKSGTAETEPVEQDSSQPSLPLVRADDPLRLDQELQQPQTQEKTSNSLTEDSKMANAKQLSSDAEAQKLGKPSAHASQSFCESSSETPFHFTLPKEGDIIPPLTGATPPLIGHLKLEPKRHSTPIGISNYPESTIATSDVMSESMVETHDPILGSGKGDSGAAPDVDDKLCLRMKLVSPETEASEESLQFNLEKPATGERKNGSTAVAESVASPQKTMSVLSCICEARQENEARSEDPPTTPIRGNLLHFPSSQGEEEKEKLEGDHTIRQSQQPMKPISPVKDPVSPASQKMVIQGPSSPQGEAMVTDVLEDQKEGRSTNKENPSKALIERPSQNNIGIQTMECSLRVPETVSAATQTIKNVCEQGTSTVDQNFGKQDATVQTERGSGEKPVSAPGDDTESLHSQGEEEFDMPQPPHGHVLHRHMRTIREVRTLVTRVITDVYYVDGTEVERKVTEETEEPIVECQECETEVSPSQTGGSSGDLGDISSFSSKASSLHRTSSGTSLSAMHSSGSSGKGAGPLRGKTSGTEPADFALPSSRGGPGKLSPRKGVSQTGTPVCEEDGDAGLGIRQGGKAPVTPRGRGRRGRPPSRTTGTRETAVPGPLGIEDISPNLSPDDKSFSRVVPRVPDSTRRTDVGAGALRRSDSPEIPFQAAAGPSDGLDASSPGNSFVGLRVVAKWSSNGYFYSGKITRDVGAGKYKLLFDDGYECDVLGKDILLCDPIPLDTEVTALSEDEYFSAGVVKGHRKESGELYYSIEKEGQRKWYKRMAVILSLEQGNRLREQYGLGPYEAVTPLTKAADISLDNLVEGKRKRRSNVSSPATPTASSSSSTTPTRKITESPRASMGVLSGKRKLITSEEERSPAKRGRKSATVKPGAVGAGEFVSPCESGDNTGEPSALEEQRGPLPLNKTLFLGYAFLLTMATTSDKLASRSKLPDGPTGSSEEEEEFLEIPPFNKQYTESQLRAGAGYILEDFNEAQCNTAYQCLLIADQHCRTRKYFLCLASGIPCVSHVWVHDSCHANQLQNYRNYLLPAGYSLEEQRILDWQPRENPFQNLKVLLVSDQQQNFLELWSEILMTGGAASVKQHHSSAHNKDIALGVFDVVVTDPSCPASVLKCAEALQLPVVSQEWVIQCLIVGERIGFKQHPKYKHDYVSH

[4] = test system: CD34+ HSPCs; experiment: editing of CD34+ HSPCs with purified i53 variant proteins and HBB-UBC-GFP AAV donor; flow cytometry; assay type: cell-based, human; conditions: for increase in levels of GFP integration over control edited cells: HBB-UBC-GFP AAV MOI 2500
Procedure: as §1, §2
Rates of targeted integration of the HBB UBC GFP donor were measured using a Beckman Coulter CytoFLEX. DAPI (Miltenyi Biotec) was used to discriminate live and dead cells. Flow cytometry data were analyzed using FlowJo 10 software.

[5] = test system: HDR-mediated integration of a donor sequence; experiment: i53 as protein-based additive, enhancement of HDR-mediated integration of a donor sequence (data not shown); assay type: cell-based; conditions: 1.5 mg/mL purified i53 in nucleofection solution, relatively inconsistent results
[6] = target: 53BP1 Tudor domain (Homo sapiens, UniProt Q12888); conditions: previously reported; mutants relative to i53; cited from earlier work
53BP1 Tudor domain, sequence (Q12888 1484-1603 limits assumed): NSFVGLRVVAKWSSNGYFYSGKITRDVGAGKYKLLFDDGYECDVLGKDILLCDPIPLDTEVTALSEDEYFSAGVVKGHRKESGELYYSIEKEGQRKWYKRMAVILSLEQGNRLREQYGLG

Question: For “i53: engineered ubiquitin variant, known inhibitor of 53BP1, selectively binds the Tudor domain of 53BP1 [reference compound]”, which “increase in levels of HDR corrected alleles over control edited cells” value ([1]; MOI 312.5, protein 0.1 mg/mL) is on record?
Answer: The value was 18%.

Question: What about the “increase in levels of HDR corrected alleles over control edited cells” value ([1]; MOI 312.5, protein 0.2 mg/mL) of the same substance?
Answer: The value was 24%.

Question: What about the “increase in levels of HDR corrected alleles over control edited cells” value ([1]; MOI 312.5, protein 0.4 mg/mL) of the same substance?
Answer: The value was 45%.

Question: And the “increase in levels of HDR corrected alleles over control edited cells” value ([1]; MOI 2500, protein 0.1 mg/mL)?
Answer: Its value is 3%.

Question: And the “increase in levels of HDR corrected alleles over control edited cells” value ([1]; MOI 2500, protein 0.2 mg/mL)?
Answer: The value was 5%.

Question: What about the “increase in levels of HDR corrected alleles over control edited cells” value ([1]; MOI 2500, protein 0.4 mg/mL) of the same substance?
Answer: The value was 18%.

Question: What about the “levels of HDR corrected alleles (normalized by total edited alleles), dose response” value ([1]; FIG. 26, protein 0.2, 0.4 and 0.8 mg/mL, MOIs 312.5 and 2500) of the same substance?
Answer: Its value is “decrease significantly as the protein concentrations decreased”.

Question: And the “increase in levels of HDR corrected alleles over DM” value ([1]; HBB-SNP AAV MOI 312.5, protein 0.4 mg/mL)?
Answer: Its value is 14%.

Question: And the “increase in levels of HDR corrected alleles over DM” value ([1]; HBB-SNP AAV MOI 2500, protein 0.4 mg/mL)?
Answer: Its value is 15%.

Question: And the “frequency of INDELS at the off-target editing site OT-1” value [2]?
Answer: Its value is “not significantly increase”.

Question: And the “recruitment of 53BP1 to DSBs” value [3]?
Answer: Its value is “block recruitment of 53BP1 to DSBs”.

Question: What about the “increase of % HDR over DM” value ([4]; HBB-UBC-GFP AAV MOI 1250, protein 0.4 mg/mL, GFP integration in live cells, L67R/L67H value is the average of both) of the same substance?
Answer: The value was 19%.

Question: And the “increase in levels of GFP integration over control edited cells” value (“increase in levels of GFP integration” below) ([4]; protein 0.1 mg/mL)?
Answer: Its value is 5%.

Question: What about the “increase in levels of GFP integration” value ([4]; protein 0.2 mg/mL) of the same substance?
Answer: Its value is 18%.

Question: What about the “increase in levels of GFP integration” value ([4]; protein 0.4 mg/mL) of the same substance?
Answer: Its value is 29%.

Question: What about the “increase in levels of GFP integration” value ([4]; protein 0.8 mg/mL) of the same substance?
Answer: Its value is 45%.

Question: And the “increases in HDR-mediated integration of a donor sequence” value [5]?
Answer: The value was 10-20%.

Question: What about the “binding to the 53BP1 Tudor domain” value [6] of the same substance?
Answer: Its value is “selectively bind”.
